Among the data in PubChem BioAssay (NCI) are TGI and GI50 values, retold here.

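The compound was tested at five concentrations on cells cultured in 96-well plates, with a 48-hour exposure period. GI50 marks 50% less growth. The concentration for full growth arrest is given as TGI.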 A value given as a limit tells only on which side of the number the result lay.

Holding throughout (experiment): NCI-60 cell line screen, 48 h
The subject of test [1] is MDA-MB-231 breast.
The test system of test [2] is RPMI-8226 leukemia.
Test [3] relates to KM12 colon.
The test system of test [4] is NCI-H522 lung.
The subject of test [5] is HOP-62 NSCLC.
Test [6] concerns COLO 205 colon.
The subject of test [7] is A498 renal.
In test [8] the test system is MALME-3M melanoma.
The test system of test [9] is MOLT-4 leukemia.
For test [10], the system named is EKVX NSCLC.

Regarding `CC(C)(C)OC(=O)N1CCC2(CC1)C(=O)NCN2c1ccccc1`, the TGI in test [1], in test [2], in test [3], in [4], in test [5] and in test [6] was above 100 µM each time. Besides, the TGI in test [7], in test [8], in test [9] and in [10] was above 100 µM each time.
As to `O=C(c1ccccc1)C1C(c2ccccc2[N+](=O)[O-])N1C1CCCCC1` (stereo not given), the TGI turned out to be 23 µM in test [1]; 4.68 µM in [2]; 25.2 µM in test [3]; 5.9 µM in test [4]; 34.1 µM in test [5]; 20.4 µM in test [6]. For the same molecule, the TGI in test [7] was determined as 30.5 µM; in [8], 29.4 µM; in [9] it was 7.79 µM; in test [10], 30.8 µM.
`CC(=O)N1CN2C(=O)CCC2c2cc(C)ccc21` (stereo not given): the TGI in [1], in test [2], in test [3], in test [4], in test [5] and in test [6] was above 100 µM in each case. The TGI in test [7], in test [8], in test [9] and in test [10] was above 100 µM throughout.
For the molecule `CC(C)(C)c1cc(C(C)(C)C)c2sc(=O)oc2c1O`, the TGI is 33.4 µM in test [1]; above 100 µM in [2]; 27.9 µM in test [3]; 26.7 µM in test [4]; 33.2 µM in test [5]; 33.7 µM in test [6]. Further, the TGI in test [7] is 27.3 µM; in test [8], 30.2 µM; in test [9] it was above 100 µM; in test [10] it was 29.2 µM.
As to `O=c1[nH]c(NCCCCCO)nc2nc[nH]c12`, the TGI in test [1], in test [2], in test [3], in [4], in test [5] and in test [6] was above 100 µM each time. Also, the TGI in test [7], in [8], in [9] and in [10] was above 100 µM in each case.
On to `COc1ccc(Nc2nc(N)c(C(=O)c3ccco3)s2)cc1`, for which the TGI in test [1] is above 100 µM; in test [2], above 85.4 µM; in test [3], above 100 µM; in test [4], above 100 µM; in [5], above 100 µM; in [6], above 100 µM. Besides, the TGI was above 61.1 µM in [7], above 100 µM in test [8], above 55.7 µM in test [9] and above 100 µM in test [10].
For `O=C(Nc1nnc(-c2ccccc2)o1)C(SC(=S)N1CCCC1)c1ccccc1` (stereo not given), the TGI is above 100 µM in test [1]; above 100 µM in [2]; above 100 µM in test [3]; 77.8 µM in [4]; above 100 µM in test [5]; above 100 µM in [6]. In addition, the TGI in [7] was 81.6 µM; in test [8], above 100 µM; in test [9] it was above 100 µM; in test [10], 68 µM.
Turning to `C[N+](C)([O-])C12CC3CC(CC(C3)C1)C2`, the TGI was above 100 µM in [1]; 93.6 µM in [2]; above 100 µM in test [3]; 65.7 µM in test [4]; above 100 µM in test [5]; 70.9 µM in test [6]. Further, the TGI was 67.7 µM in test [7], above 100 µM in test [8], above 100 µM in [9] and 74.3 µM in [10].
For the molecule `O=[N+]([O-])C(/C=C(\Cl)[N+](=O)[O-])=C(Nc1ccccc1)Nc1ccccc1`, the TGI in [1] was determined as 26.9 µM; in [2], 6.35 µM; in [3], 24.3 µM; in test [4] it was 4.55 µM; in [5] it was 4.8 µM; in test [6], 23.1 µM. For the same molecule, the TGI in test [7] is 31.7 µM; in test [8] it was 21 µM; in [9] it was 6.12 µM; in test [10] it was 27.4 µM.
Take `CC(CSc1nc2c(c(=N)n1-c1ccccc1)c(=S)n(-c1ccccc1)c(=S)n2-c1ccccc1)CN(C)C` (stereo not given): the TGI worked out at 3.46 µM in [1]; 1.4 µM in [2]; 5.6 µM in [3]; 2.83 µM in [4]; 3.62 µM in test [5]; 3.48 µM in test [6]. Further, the TGI in [7] amounted to 6 µM; in test [8], 3.23 µM; in [9], 3.02 µM; in test [10], 3.12 µM.
Turning to `CN(C)c1ccc(/C=C2\N=C(c3ccccc3)N(c3nc4ccc(Sc5ccccc5)cc4[nH]3)C2=O)cc1`, the TGI in test [1] is above 100 µM; in test [2], 71.4 µM; in test [3], above 100 µM; in [4], above 100 µM; in test [5] it was above 100 µM; in [6], 45.9 µM. Also, the TGI in test [7], in test [8], in test [9] and in [10] was above 100 µM each time.
Consider `CCOC(=O)/C=C(/OCC)[C@@H]1C(C(=O)c2ccc(Cl)cc2)[C@@H]1/C(=C\C(=O)OCC)OCC` (stereo not given in full), for which the TGI in test [1] is above 100 µM; in [2], above 23.1 µM; in [3] it was above 51.3 µM; in test [4], above 59.2 µM; in test [5], above 100 µM; in test [6], 27.4 µM. Also, the TGI is above 100 µM in test [7], above 100 µM in test [8], above 24.4 µM in [9] and above 100 µM in test [10].
As to `O=C(CCCCCCCCC(=O)N1C(=O)CC(=O)N(c2ccc(Cl)cc2)C1=S)N1C(=O)CC(=O)N(c2ccc(Cl)cc2)C1=S`, the TGI in test [1], in test [2], in [3], in test [4], in [5] and in [6] was above 100 µM throughout. Also, the TGI in test [7] is above 100 µM; in test [8] it was above 100 µM; in test [9], 75.6 µM; in [10] it was above 100 µM.
As for `Oc1ccccc1/C=N/c1nc(-c2ccccc2)cs1`, the GI50 in test [1] was 20 µM; in [2], 27.5 µM; in [3], 51 µM; in test [4], 25.4 µM; in test [5], above 100 µM; in test [6], 57.7 µM. Moreover, the GI50 in [7] was 77 µM; in test [8], 47.2 µM; in test [9] it was 25.4 µM; in test [10], above 100 µM. Further, the TGI in test [1] was above 100 µM; in test [2] it was above 100 µM; in test [3] it was above 100 µM; in [4], 62.6 µM; in test [5], above 100 µM; in test [6], above 100 µM. Further, the TGI in test [7] was above 100 µM; in test [8] it was above 100 µM; in [9], 74.7 µM; in test [10] it was above 100 µM.
With `COc1cc2c(cc1OC)C(C1CC1)ON(C)CC2` (stereo not given), the TGI in test [1], in [2], in test [3], in [4], in test [5] and in [6] was above 100 µM in each case. Moreover, the TGI in test [7], in [8], in test [9] and in [10] was above 100 µM in each case.
On to `O=c1c2ccccc2n2nnc3ccc(NCCNCCO)c1c32`, for which the TGI was 8.18 µM in [1]; 13.7 µM in test [2]; 7.44 µM in [3]; 7.23 µM in test [4]; 8.91 µM in test [5]; 4.09 µM in test [6]. Also, the TGI in [7] stood at 5.52 µM; in test [8], 7.84 µM; in test [9] it was 9.64 µM; in test [10], 8.87 µM.
Consider `O=C(CN1CCCC1)Nc1ccc2c(c1)C1Oc3ccccc3CC1CO2` (stereo not given), for which the TGI was 75.7 µM in test [1]; 78.9 µM in [2]; above 100 µM in test [3]; 96.5 µM in test [4]; 45.5 µM in test [5]; 27.8 µM in test [6]. The TGI in test [7] is above 100 µM; in [8], 33.4 µM; in [9], above 100 µM; in test [10], above 100 µM.
With `O=C(O)C1C2OC(C(Br)C2Br)C1C(=O)O` (stereo not given), the TGI in [1], in test [2], in [3], in [4], in test [5] and in test [6] was above 100 µM throughout. In addition, the TGI in test [7], in [8], in test [9] and in test [10] was above 100 µM throughout.
Regarding `COc1cc2ccc(C(C)NCC#N)cc2cc1OC` (stereo not given), the TGI in test [1], in [2], in [3], in [4], in test [5] and in [6] was above 100 µM in each case. The TGI in [7], in test [8], in test [9] and in test [10] was above 100 µM in each case.
`Cc1cc(C)n(C(C)(C(=O)Cc2ccccc2)n2nc(C)cc2C)n1`: the TGI in test [1], in test [2], in test [3], in [4], in [5] and in [6] was above 100 µM throughout. Moreover, the TGI in [7], in test [8], in [9] and in test [10] was above 100 µM throughout.
Turning to `COc1cc2c(cc1OCCN1CCN(CCOc3cc4c(cc3OC)C(=O)N3CCC[C@H]3C=N4)CC1)N=C[C@@H]1CCCN1C2=O`, the TGI in [1] was 54.5 µM; in test [2], 15.4 µM; in test [3], above 75.3 µM; in [4], above 82.1 µM; in test [5], above 100 µM; in [6], above 90.4 µM. Besides, the TGI in test [7] is above 72.5 µM; in test [8], 38.4 µM; in test [9] it was 6.78 µM; in test [10] it was above 100 µM.
On to `CC(C)(C)[C@H]1NC(=O)CN1C(=O)OCc1ccccc1`, for which the TGI in [1], in test [2], in test [3], in test [4], in test [5] and in test [6] was above 100 µM each time. The TGI in [7] was 54.9 µM; in test [8], above 100 µM; in [9], above 100 µM; in test [10], above 100 µM.
Take `CN(CC(=O)O)c1ncc2c(n1)-c1ccccc1CC2`: the TGI in test [1], in [2], in test [3], in [4], in test [5] and in test [6] was above 100 µM each time. Besides, the TGI in test [7], in test [8], in test [9] and in test [10] was above 100 µM each time.
For `C=C(CCC(=O)N(CCc1c[nH]c2ccccc12)C(=O)c1ccccc1CSCC)C(=O)OC`, the TGI in test [1] is above 100 µM; in test [2], above 100 µM; in [3], above 100 µM; in test [4], above 100 µM; in [5] it was above 100 µM; in test [6], 54.6 µM. Also, the TGI in [7], in test [8], in [9] and in test [10] was above 100 µM in each case.
Consider `COc1ccccc1-c1cc(=O)c2cccnc2[nH]1`, for which the TGI is above 100 µM in test [1]; above 100 µM in test [2]; above 100 µM in [3]; above 100 µM in test [4]; above 100 µM in test [5]; 96 µM in test [6]. Also, the TGI in test [7], in test [8], in test [9] and in [10] was above 100 µM in each case.
`CCOC1OC(C)(C=C(C#N)C#N)CCC1C` (stereo not given): the TGI in [1] was above 100 µM; in test [2] it was 70.6 µM; in test [3], above 100 µM; in test [4], 39.5 µM; in test [5] it was above 100 µM; in test [6], above 100 µM. Besides, the TGI in test [7] was 51 µM; in test [8], above 100 µM; in [9] it was above 100 µM; in test [10], above 100 µM.
